Assay results as given in publication PMC5355302, “Arg-Leu-Tyr-Glu tetrapeptide inhibits tumor progression by suppressing angiogenesis and vascular permeability via VEGF receptor-2 antagonism” (Oncotarget, 2016).
Where a SMILES comes first, the peptide text is derived from it. Where no end group is shown, it is not given here.

Key:
HCT116 tumors = assay: HCT116 human colon cancer xenograft in nude mice; type: in vivo, mouse; settings: RLYE 0.5 mg/kg/day i.p., CPT-11 17 mg/kg every 5th day, alone or combined, n = 7 per group
Method: Figure 7 RLYE inhibits tumor growth and metastasis by suppressing tumor angiogenesis A. Representative tumors isolated from 29-days-old B16F1 tumor-bearing C57BL/6J mice injected i.p. with saline or RLYE (1 mg/kg) every day. B. Tumor weight on day 29 after injection of B16F1 cells (n = 10 mice per group). C. […] D. Representative images for metastatic nodules of the lungs isolated from C57BL/6J mice, which were injected i.v. with B16F10 melanoma cells and treated with saline or RLYE for 3 weeks. E. Quantification of the number of lung metastatic nodules. […] Representative tumors from 30-day-old HCT116 tumor-bearing mice. (G) Tumor burden was measured every 3 days (n = 8 mice per group). (H) Functional vascularization was quantified by measuring hemoglobin concentration in HCT116 tumor tissues (n = 5). […]
Figure 8 RLYE inhibits vascular leakage and enhances tumor chemosensitivity A. Endothelial cell permeability was determined by diffusion of [^14C]-sucrose through HUVEC monolayers treated with 20 ng/ml of VEGF alone or in combination with RLYE (n = 3). B. Phosphorylation of VE-cadherin was determined in cell lysates of HUVECs treated with 20 ng/ml of VEGF alone or in combination with RLYE. […] Immunostaining of VE-cadherin in endothelial monolayer was determined by confocal microscopy. […] Tumor vascular leakage was determined by the Evans blue method (E and F) or FITC-dextran image assay (G and H). […]

HUVECs [1] = assay: FACS binding of FITC-conjugated RLYE to HUVECs; design: species or system human; settings: FITC-conjugated RLYE 15 nM, n = 5
Method: (§1) Figure 5 RLYE binds to endothelial cells through binding to VEGFR-2 A and B. HUVECs were incubated with FITC-conjugated RLYE (RL, 15 nM) before or after treatment with VEGF-A (VE, 100 ng) for 30 min. Cells were analyzed by flow cytometry (A) and quantified (B). Data are the means ± SD (n = 5). **P < 0.01 versus RLYE alone. C and D. HUVEC lysates were incubated with biotinylated RLYE (Bio-RLYE, 0.15 or 1.5 nM), followed by precipitation with streptavidin-agarose beads. The red arrow indicates VEGFR-2 protein bands on a longer exposure film. The precipitates were separated by SDS-PAGE. VEGFR-2 or VEGFR-1 expression was assessed by Western blot analysis. E. HUVECs were treated with or without VEGF-A (10 ng/ml) for 30 min, followed by incubation with FITC-conjugated RLYE (100 ng/ml, green). Cells were incubated with a TRITC-conjugated CD31 antibody (1:100, red) or DAPI (blue). Confocal microscopy was performed for analyzing binding of RLYE on HUVECs. Scale bar, 10 μm.
HUVECs cultured for 24 h after plating in 60 mm-culture dishes. Cells from subconfluent cultures were gently detached from wells with PBS containing 5 mM EDTA, washed three times with PBS, and resuspended in PBS containing 2% FBS/0.1% bovine serum albumin. Thereafter, they were incubated with FITC-conjugated RLYE (15 nM) before or after treatment with VEGF (100 ng/ml) for 30 min on ice, fixed in 2% paraformaldehyde, and analyzed by flow cytometry in a fluorescence-activated cell sorter (FACSCalibur, Becton Dickinson, Franklin Lakes, NJ).

HUVECs [2] = assay: confocal microscopy of FITC-RLYE binding to HUVECs; design: species or system human
Method: as §1, with “Confocal microscopy was performed for analyzing binding of RLYE on HUVECs. Scale bar, 10 μm.” left out
For immunocytochemistry, HUVECs were grown to confluence on glass coverslips coated with 2% gelatin and treated with or without VEGF-A (10 ng/ml) for 30 min, followed by incubation with FITC-RLYE (100 ng/ml). […] Images were photographed and analyzed using a confocal fluorescence microscope. Nuclear staining was performed with 4’, 6-diamidino-2-phenylindole (DAPI, 1 ng/ml), and apoptotic cells were detected using a terminal deoxynucleotidyl transferase dUTP nick end labeling (TUNEL) kit (Roche, Korea).

VEGFR-2 = settings: read-out: IC50 for VEGFR-2; endothelial cell culture conditions; cited from earlier work
VEGF-A [3] = settings: cited from earlier work
Description: Therefore, the VEGF-A/VEGFR-2 system is widely considered a main target of the therapeutic treatment for tumor angiogenesis. Ligation of VEGFR-2 triggers strong proangiogenic signals including p38MAPK/ERK, Src/FAK, and Akt/eNOS through VEGFR-2 phosphorylation, which promote angiogenesis and VEGFR-2 internalization.

endothelial cells = system: endothelial cells; design: method as in PMID 15013002; settings: cited from earlier work
VEGF-A [4] = settings: read-out: IC50 for VEGF-A; endothelial cell culture conditions; cited from earlier work
HCT116 cells = assay: MTT cell viability, HCT116 cells; type: cell-based, human; settings: up to 30 nM, 24 h
Method: (§2) Mouse melanoma B16F1 and B16F10 cells and human HCT116 colon cancer cells were obtained from American Type Culture Collection (Manassas, VA) and cultured in RPMI medium supplemented with 10% FBS, 1 mM sodium pyruvate, 10 mM 4-(2-hydroxyethyl)-1-piperazineethanesulfonic acid, and 100 U/ml penicillin-streptomycin in a humidified atmosphere of 5% CO2 at 37°C. Human umbilical vein endothelial cells (HUVECs) were maintained and cultured in M199 as described previously, and only passages 2-7 were used for all experiments. Human multiple myeloma IM-9 and RPMI 8226 cells were obtained from Korean Cell Line Bank (Seoul, Korea). The cells were cultured in RPMI-1640 medium in a humidified CO2 incubator. Cell viability or cytotoxicity was evaluated by 3-[4,5-cimethylthiazol-2-yl]-2,5-diphenyl tetrazolium bromide (MTT, Sigma-Aldrich) assay.
(§3) www.impactjournals.com/oncotarget/ Oncotarget, Supplementary Materials 2016
(§4) B. cells were treated the indicated concentration of RLYE for 24 h. Cell viability was determined by MTT assay. […]

half-life in blood = type: in vivo; settings: unpublished data
HUVECs [5] = assay: MTT cell viability, HUVECs; type: cell-based, human; settings: 24 h
Method: as §2, §3, §4

[6] = half-life in culture medium; type: in vitro ADME; settings: M199 culture medium with 10% heat-inactivated FBS; unpublished data
[7] = target: human recombinant VEGF receptor-2 (rhVEGFR-2) (human) (UniProt P35968); assay: SPR; rhVEGFR-2 immobilised on an activated CM5 chip; RLYE at different concentrations flowed in HBS-EP (10 mM Hepes, 150 mM NaCl, 3 mM EDTA, 0.005% Tween-20) at 25 μl/min, 120 sec injection; Kd from a steady state binding model
Chain of human recombinant VEGF receptor-2 (rhVEGFR-2) (human) (P35968 20-764): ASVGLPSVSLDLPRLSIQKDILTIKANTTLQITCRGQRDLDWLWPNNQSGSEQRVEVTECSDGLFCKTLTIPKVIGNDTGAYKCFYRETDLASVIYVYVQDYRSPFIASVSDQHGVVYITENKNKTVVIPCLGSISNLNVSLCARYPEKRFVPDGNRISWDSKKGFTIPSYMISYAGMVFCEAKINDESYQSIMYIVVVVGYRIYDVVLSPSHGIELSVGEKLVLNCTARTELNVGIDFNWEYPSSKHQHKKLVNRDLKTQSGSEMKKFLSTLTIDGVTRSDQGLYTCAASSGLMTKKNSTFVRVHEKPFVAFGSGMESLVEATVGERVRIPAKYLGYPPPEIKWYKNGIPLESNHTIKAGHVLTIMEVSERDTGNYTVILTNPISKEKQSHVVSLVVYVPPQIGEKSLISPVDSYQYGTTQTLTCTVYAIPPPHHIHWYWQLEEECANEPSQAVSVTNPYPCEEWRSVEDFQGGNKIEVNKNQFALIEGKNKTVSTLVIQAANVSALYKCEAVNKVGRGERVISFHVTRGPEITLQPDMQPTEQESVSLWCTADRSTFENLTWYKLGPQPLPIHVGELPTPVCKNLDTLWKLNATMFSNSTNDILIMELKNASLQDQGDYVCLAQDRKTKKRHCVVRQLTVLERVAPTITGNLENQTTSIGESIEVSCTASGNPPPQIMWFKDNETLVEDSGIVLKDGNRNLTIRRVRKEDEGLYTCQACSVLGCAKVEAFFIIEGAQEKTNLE

## CCc1c2c(nc3ccc(OC(=O)N4CCC(N5CCCCC5)CC4)cc13)-c1cc3c(c(=O)n1C2)COC(=O)[C@]3(O)CC [CPT-11, irinotecan]
HCT116 tumors
  tumor growth in mice bearing HCT116 colon tumor: significantly inhibited tumor growth

## FITC-conjugated RLYE: fluorescein isothiocynate (FITC)-conjugated RLYE, purchased from Peptron (also: FITC conjugated, position not given here)
HUVECs [1]; 30 min on ice, flow cytometry
  binding to the surface of control HUVECs: bound
HUVECs [1]; VEGF 100 ng/ml after the peptide
  blocking of binding to HUVECs by post-incubation with VEGF-A: not
HUVECs [1]; VEGF 100 ng/ml before the peptide
  binding to HUVECs after pre-incubation with VEGF-A: blocked
HUVECs [2]; FITC-conjugated RLYE 100 ng/ml
  binding to the surface of HUVECs (confocal): bound
HUVECs [2]; VEGF-A 10 ng/ml 30 min, then FITC-conjugated RLYE 100 ng/ml
  binding to the surface of HUVECs after pretreatment with VEGF-A (confocal): effectively blocked

## ramucirumab: fully humanized monoclonal antibody bound to the extracellular domain of VEGFR-2
VEGFR-2
  IC50: 1 to 2 nM

## aflibercept: soluble decoy VEGFR-1
VEGF-A [3]
  affinity to VEGF-A relative to bevacizumab: several hundred-fold greater

## Lys-Leu-Tyr-Asp [KLYD, tetrapeptide derived from the kringle 5 of plasminogen]
Endothelial cells
  inhibitory effect on endothelial cell proliferation: potent inhibitory effect

## bevacizumab: anti-VEGF antibody
VEGF-A [4]
  IC50: 0.15 nM

## CC(C)C[C@H](NC(=O)[C@@H](N)CCCNC(=N)N)C(=O)N[C@@H](Cc1ccc(O)cc1)C(=O)N[C@@H](CCC(=O)O)C(=O)O [RLYE, Arg-Leu-Tyr-Glu] (H-RLYE-OH)
HCT116 cells
  cytotoxic effect on cultured HCT116 cells: no cytotoxic effect
half-life in blood
  half-life in blood: 1.2 h
HUVECs [5]
  cytotoxicity against HUVECs: did not induce any cytotoxicity
[6]
  half-life: > 18 h

## RLYE [Arg-Leu-Tyr-Glu tetrapeptide (RLYE)]
[7]
  Kd: 9000 nM
